By EC50 is commonly meant the concentration giving half of the maximal effect.

One assay has as its target T1, Rat mGlu2 (Rattus norvegicus, UniProt P31421).
T1 construct: expressed in transfected cells; host or cells: HEK-293 co-expressing GIRK channels
In words: mGlu receptor in vitro assay, thallium flux through GIRK channels, rat mGlu2. Format: cell-based. Conditions: PAM potency with EC20 glutamate. The method, then:
(§1) Human Embryonic Kidney (HEK-293) cell lines co-expressing rat mGlu receptors 2, 3, 4, 6, 7 or 8 and G protein-coupled inwardly-rectifying potassium (GIRK) channels were grown in Growth Media containing 45% DMEM, 45% F-12, 10% FBS, 20 mM HEPES, 2 mM L-glutamine, antibiotic/antimycotic, non-essential amino acids, 700 μg/mL G418, and 0.6 μg/ml puromycin at 37° C. in the presence of 5% CO2. […] All cell culture reagents were purchased from Invitrogen Corp. (Carlsbad, CA) unless otherwise noted. Calcium assays were used to assess activity of compounds at mGlu1 and mGlu5, as previously described in Engers et al (J. Med. Chem. 2009, 52, 4115-4118). Calcium assays at mGlu3 were performed as described for mGlu5 with the exception that TREx293 mGlu3 Gα15 cells were treated with tetracycline at 20 ng/mL for 20 h prior to assay.
(§2) Compound activity at the group II (mGlu2 and mGlu3) and group III (mGlu4, mGlu6, mGlu7, and mGlu8) was assessed using thallium flux through GIRK channels, a method that has been described in detail. Briefly, cells were plated into 384-well, black-walled, clear-bottomed poly-D-lysine-coated plates at a density of 15,000 cells/20 μL/well in DMEM containing 10% dialyzed FBS, 20 mM HEPES, and 100 units/mL penicillin/streptomycin (assay media). Plated cells were incubated overnight at 37° C. in the presence of 5% CO2. The following day, the medium was exchanged from the cells to assay buffer [Hanks' balanced salt solution (Invitrogen) containing 20 mM HEPES, pH 7.3] using an ELX405 microplate washer (BioTek), leaving 20 μL/well, followed by the addition of 20 μL/well FluoZin2-AM (330 nM final concentration) indicator dye (Invitrogen; prepared as a stock in DMSO and mixed in a 1:1 ratio with Pluronic acid F-127) in assay buffer. Cells were incubated for 1 h at room temperature, and the dye exchanged to assay buffer using an ELX405, leaving 20 μL/well. Test compounds were diluted to 2 times their final desired concentration in assay buffer (0.3% DMSO final concentration). Agonists were diluted in thallium buffer [125 mM sodium bicarbonate (added fresh the morning of the experiment), 1 mM magnesium sulfate, 1.8 mM calcium sulfate, 5 mM glucose, 12 mM thallium sulfate, and 10 mM HEPES, pH 7.3] at 5 times the final concentration to be assayed. Cell plates and compound plates were loaded onto a kinetic imaging plate reader (FDSS 6000 or 7000; Hamamatsu Corporation, Bridgewater, NJ). Appropriate baseline readings were taken (10 images at 1 Hz; excitation, 470±20 nm; emission, 540±30 nm) and test compounds were added in a 20 μL volume and incubated for approximately 2.5 min before the addition of 10 μL of thallium buffer with or without agonist. After the addition of agonist, data were collected for approximately an additional 2.5 min. Data were analyzed using Excel (Microsoft Corp, Redmond, WA). The slope of the fluorescence increase beginning 5 s after thallium/agonist addition and ending 15 s after thallium/agonist addition was calculated, corrected to vehicle and maximal agonist control slope values, and plotted in using either XLfit (ID Business Solutions Ltd) or Prism software (GraphPad Software, San Diego, CA) to generate concentration-response curves. Potencies were calculated from fits using a four-point parameter logistic equation. For concentration-response curve experiments, compounds were serially diluted 1:3 into 10-point concentration response curves and were transferred to daughter plates using an Echo acoustic plate reformatter (Labcyte, Sunnyvale, CA). Test compounds were applied and followed by EC20 concentrations of glutamate.

The target in a further assay is T2, Rat mGlu3 (Rattus norvegicus, UniProt P31422).
T2 construct: expressed in transfected cells; host or cells: HEK-293 co-expressing GIRK channels
T2 sequence (P31422 23-879): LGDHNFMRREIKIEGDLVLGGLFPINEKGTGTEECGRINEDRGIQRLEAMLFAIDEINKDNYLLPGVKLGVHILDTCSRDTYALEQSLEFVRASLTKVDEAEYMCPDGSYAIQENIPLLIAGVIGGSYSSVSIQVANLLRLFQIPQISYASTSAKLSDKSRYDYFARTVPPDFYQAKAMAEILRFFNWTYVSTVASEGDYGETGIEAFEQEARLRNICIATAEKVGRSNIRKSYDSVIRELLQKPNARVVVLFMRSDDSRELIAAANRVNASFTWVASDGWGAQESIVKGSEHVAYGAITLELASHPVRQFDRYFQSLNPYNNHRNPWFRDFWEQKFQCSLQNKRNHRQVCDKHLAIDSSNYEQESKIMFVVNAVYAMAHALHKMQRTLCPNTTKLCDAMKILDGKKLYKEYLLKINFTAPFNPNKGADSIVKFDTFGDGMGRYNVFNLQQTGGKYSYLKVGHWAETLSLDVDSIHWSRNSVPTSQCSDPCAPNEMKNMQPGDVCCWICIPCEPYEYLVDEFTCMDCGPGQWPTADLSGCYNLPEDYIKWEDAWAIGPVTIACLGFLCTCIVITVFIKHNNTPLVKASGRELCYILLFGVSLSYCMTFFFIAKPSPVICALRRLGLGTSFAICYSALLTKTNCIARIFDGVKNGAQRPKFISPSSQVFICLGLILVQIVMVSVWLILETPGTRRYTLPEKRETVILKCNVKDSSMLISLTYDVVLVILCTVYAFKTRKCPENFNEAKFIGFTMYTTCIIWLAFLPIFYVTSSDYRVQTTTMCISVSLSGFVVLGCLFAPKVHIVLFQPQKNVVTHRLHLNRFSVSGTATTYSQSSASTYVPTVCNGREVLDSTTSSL
In words: mGlu receptor in vitro assay (thallium flux through GIRK channels / calcium assay), rat mGlu3. The assay is classed as cell-based. Conditions: PAM potency with EC20 glutamate. The method, then:
as §1, §2

T1 sequence (P31421 19-872): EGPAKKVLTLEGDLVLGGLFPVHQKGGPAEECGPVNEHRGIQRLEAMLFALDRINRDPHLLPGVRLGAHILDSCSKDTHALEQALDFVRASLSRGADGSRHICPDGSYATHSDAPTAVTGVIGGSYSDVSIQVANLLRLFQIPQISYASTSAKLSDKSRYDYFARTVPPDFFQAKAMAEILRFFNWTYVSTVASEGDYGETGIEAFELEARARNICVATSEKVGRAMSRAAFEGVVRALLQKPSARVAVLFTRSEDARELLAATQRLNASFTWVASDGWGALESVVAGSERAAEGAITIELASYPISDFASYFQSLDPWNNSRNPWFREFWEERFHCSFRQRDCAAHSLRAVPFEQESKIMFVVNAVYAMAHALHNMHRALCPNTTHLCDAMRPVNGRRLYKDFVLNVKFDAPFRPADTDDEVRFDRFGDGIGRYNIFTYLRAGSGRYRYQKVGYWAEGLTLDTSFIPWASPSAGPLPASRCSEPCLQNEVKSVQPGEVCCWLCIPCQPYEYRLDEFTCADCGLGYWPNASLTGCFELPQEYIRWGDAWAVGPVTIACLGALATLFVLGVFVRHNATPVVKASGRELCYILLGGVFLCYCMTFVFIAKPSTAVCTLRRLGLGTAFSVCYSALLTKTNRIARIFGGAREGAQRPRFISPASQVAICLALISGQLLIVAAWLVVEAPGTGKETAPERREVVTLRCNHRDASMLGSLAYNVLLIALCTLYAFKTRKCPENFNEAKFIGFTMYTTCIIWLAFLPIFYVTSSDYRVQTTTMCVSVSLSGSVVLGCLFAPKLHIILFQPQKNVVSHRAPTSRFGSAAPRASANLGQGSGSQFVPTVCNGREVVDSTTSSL

Consider `CCCC(=O)c1ccc(OCc2cnc(-c3ccc(C(=O)O)c(Cl)c3)cn2)c(C)c1O` [compound 107, 4-{5-[(4-Butanoyl-3-hydroxy-2-methylphenoxy)methyl]pyrazin-2-yl}-2-chlorobenzoic acid], for which the EC50 at Rat mGlu2 was determined as 254 nM; at Rat mGlu3, 2140 nM.

Regarding `CCCC(=O)c1ccc(OCCCCCOc2cnc(C)c(C(=O)O)c2)c(C)c1O` [compound 108, 5-[5-(4-Butanoyl-3-hydroxy-2-methylphenoxy)pentyloxy]-2-methylpyridine-3-carboxylic acid], the EC50 on Rat mGlu2 was 110 nM; on Rat mGlu3, more than 30000 nM.

As for `Cc1c(OCc2cnc(-c3cccc(C(=O)O)c3)cn2)ccc(C(=O)C(C)(C)C)c1O` [compound 110, 3-(5-((3-Hydroxy-2-methyl-4-pivaloylphenoxy)methyl)pyrazin-2-yl)benzoic acid], the concentration for a half-maximal effect (EC50) was found to be 1040 nM at Rat mGlu2 and 327 nM at Rat mGlu3.

On to `CCCC(=O)c1ccc(OCCCCCOc2ccc(C(=O)CCC)c(O)c2C)c(C)c1O` [compound 111, 1-{4-[5-(4-Butanoyl-3-hydroxy-2-methylphenoxy)pentyloxy]-2-hydroxy-3-methylphenyl}butan-1-one], for which the concentration giving a half-maximal response (EC50) on Rat mGlu2 is more than 10000 nM; on Rat mGlu3, more than 30000 nM.

`Cc1c(OCc2cncc(-c3cccc(C(=O)O)c3)n2)ccc(C(=O)CC(C)(C)C)c1O` [compound 112, 3-(6-((4-(3,3-Dimethylbutanoyl)-3-hydroxy-2-methylphenoxy)methyl)pyrazin-2-yl)benzoic acid]: the EC50 worked out at 217 nM on Rat mGlu2 and 281 nM at Rat mGlu3.

Take `Cc1c(OCc2cnc(-c3cccc(C(=O)NC4CC4)c3)cn2)ccc(C(=O)CC(C)(C)C)c1O` [compound 113, N-Cyclopropyl-3-(5-((4-(3,3-dimethylbutanoyl)-3-hydroxy-2-methylphenoxy)methyl)pyrazin-2-yl)benzamide]: the figures for the EC50 on Rat mGlu2 and on Rat mGlu3 were 1270 nM and 333 nM, respectively.

Turning to `Cc1c(OCc2ccnc(-c3cccc(C(=O)O)c3)n2)ccc(C(=O)CC(C)(C)C)c1O` [compound 114, 3-(4-((4-(3,3-Dimethylbutanoyl)-3-hydroxy-2-methylphenoxy)methyl)pyrimidin-2-yl)benzoic acid], the EC50 on Rat mGlu2 is 391 nM; on Rat mGlu3, 258 nM.

For `Cc1c(OCc2cnc(-c3cccc(S(N)(=O)=O)c3)cn2)ccc(C(=O)CC(C)(C)C)c1O` [compound 117, 3-(5-((4-(3,3-Dimethylbutanoyl)-3-hydroxy-2-methylphenoxy)methyl)pyrazin-2-yl)benzenesulfonamide], the EC50 on Rat mGlu2 and at Rat mGlu3 was more than 30000 nM in each case.

Take `CCCC(=O)c1ccc(OCc2cnc(-c3cccc(C(=O)O)c3)cn2)c(C)c1O` [compound 118, 3-(5-((4-Butyryl-3-hydroxy-2-methylphenoxy)methyl)pyrazin-2-yl)benzoic acid]: the concentration giving a half-maximal response (EC50) at Rat mGlu2 was 482 nM; on Rat mGlu3, 1020 nM.

As to `Cc1c(OCc2ccc(-c3cccc(C(=O)O)c3)nn2)ccc(C(=O)CC(C)(C)C)c1O` [compound 119, 3-(6-((4-(3,3-Dimethylbutanoyl)-3-hydroxy-2-methylphenoxy)methyl)pyridazin-3-yl)benzoic acid], the EC50 is 916 nM at Rat mGlu2 and 616 nM on Rat mGlu3.

For the compound `COc1ccc(C(=O)O)cc1OCCCCOc1ccc(C(=O)Cc2ccccc2)c(O)c1C` [compound 120, 3-(4-(3-Hydroxy-2-methyl-4-(2-phenylacetyl)phenoxy)butoxy)-4-methoxybenzoic acid], the results for the 50% effective concentration (EC50) on Rat mGlu2 and at Rat mGlu3 were 220 nM and 642 nM, respectively.

Regarding `Cc1c(OCc2cnc(-c3cccc(C(=O)O)c3)cn2)ccc(C(=O)Cc2ccccc2)c1O` [compound 121, 3-(5-((3-Hydroxy-2-methyl-4-(2-phenylacetyl)phenoxy)methyl)pyrazin-2-yl)benzoic acid], the EC50 was found to be 782 nM on Rat mGlu2 and 593 nM at Rat mGlu3.

With `Cc1c(OCc2cnc(-c3cccc(-c4nn[nH]n4)c3)cn2)ccc(C(=O)CC(C)(C)C)c1O` [compound 122, 1-(4-((5-(3-(2H-Tetrazol-5-yl)phenyl)pyrazin-2-yl)methoxy)-2-hydroxy-3-methylphenyl)-3,3-dimethylbutan-1-one], the concentration for a half-maximal effect (EC50) was found to be 539 nM on Rat mGlu2 and 282 nM at Rat mGlu3.

In the case of `Cc1c(OCc2cnc(-c3cccc(-c4noc(=S)[nH]4)c3)cn2)ccc(C(=O)CC(C)(C)C)c1O` [compound 123, 1-(2-Hydroxy-3-methyl-4-((5-(3-(5-thioxo-4,5-dihydro-1,2,4-oxadiazol-3-yl)phenyl)pyrazin-2-yl)methoxy)phenyl)-3,3-dimethylbutan-1-one], the figures for the EC50 on Rat mGlu2 and at Rat mGlu3 were 2520 nM and 2640 nM, respectively.

For the compound `Cc1c(OCc2cnc(-c3cccc(-c4noc(=O)[nH]4)c3)cn2)ccc(C(=O)CC(C)(C)C)c1O` [compound 124, 3-(3-(5-((4-(3,3-Dimethylbutanoyl)-3-hydroxy-2-methylphenoxy)methyl)pyrazin-2-yl)phenyl)-1,2,4-oxadiazol-5(4H)-one], the 50% effective concentration (EC50) is 2480 nM at Rat mGlu2 and 1690 nM on Rat mGlu3.

On to `Cc1c(OCc2cnc(-c3cccc(-c4nsc(=O)[nH]4)c3)cn2)ccc(C(=O)CC(C)(C)C)c1O` [compound 125, 3-(3-(5-((4-(3,3-Dimethylbutanoyl)-3-hydroxy-2-methylphenoxy)methyl)pyrazin-2-yl)phenyl)-1,2,4-thiadiazol-5(4H)-one], for which the EC50 on Rat mGlu2 is more than 10000 nM; on Rat mGlu3, more than 30000 nM.

As for `Cc1c(OCc2cnc(-c3cccc(C(=O)NS(C)(=O)=O)c3)cn2)ccc(C(=O)CC(C)(C)C)c1O` [compound 126, 3-(5-((4-(3,3-Dimethylbutanoyl)-3-hydroxy-2-methylphenoxy)methyl)pyrazin-2-yl)-N-(methylsulfonyl)benzamide], the figures for the concentration for a half-maximal effect (EC50) at Rat mGlu2 and on Rat mGlu3 were more than 10000 nM and 2140 nM, respectively.

Take `COc1c(C(=O)O)cccc1-c1cnc(COc2ccc(C(=O)CC(C)(C)C)c(O)c2C)cn1` [compound 136, 3-(5-((4-(3,3-Dimethylbutanoyl)-3-hydroxy-2-methylphenoxy)methyl)pyrazin-2-yl)-2-methoxybenzoic acid]: the concentration for a half-maximal effect (EC50) came out at 129 nM on Rat mGlu2 and 53 nM at Rat mGlu3.

With `Cc1c(OCc2cccc(-c3cccc(C(=O)O)c3)c2)ccc(C(=O)Cc2ccccc2)c1O` [compound 161, 3′-((3-Hydroxy-2-methyl-4-(2-phenylacetyl)phenoxy)methyl)-[1,1′-biphenyl]-3-carboxylic acid], the values for the half-maximal effective concentration (EC50) on Rat mGlu2 and on Rat mGlu3 were 200 nM and 1030 nM, respectively.

The values are drawn from patent publication US20250179000A1 (Sanford Burnham Prebys Medical Discovery Institute, priority 2021, published 2025).
